From patent EP0986401B1, “P-SELECTIN TRANSLOCATION TO VASCULAR EPITHELIAL LUMEN BY IONIZING RADIATION” (ARCH DEVELOPMENT CORPORATION, priority 1997, dated 1998)
Entries after “also recorded” stand apart in the source; their conditions may differ. Where a name gives a salt, the structure may show the parent alone. Read-outs that look alike come from different tables or passages of the source. Starred links: 1 amine or outer side, 2 acyl side, 3 side chain; linkers in the order of their positions; H or OH if unused. Positions of bridges follow the written chain, without caps; N, C: chain ends. Non-standard residues stand in square brackets, D forms with d. Residues, ends and D or L forms follow the SMILES beside them. Chains are numbered I, II in the order given. Actinocin(9to1) = Cc1c2oc3c(C)ccc(C(=O)[*:1])c3nc-2c(C(=O)[*:2])c(N)c1=O; NMeV = CN[C@H](C(=O)O)C(C)C; Nle = CCCC[C@H](N)C(=O)O; Sar = CNCC(=O)O

What was measured:
P-selectin [1] = assay: P-selectin translocation in irradiated HUVEC with microtubule or actin agents, confocal immunofluorescence; assay type: cell-based, human; conditions: for x-ray induced translocation of P-selectin: HUVEC pretreated 45 min, staining 60 minutes after x-irradiation (2 Gy); for 8-fold increase in P-selectin immunofluorescence on the cell surface: x-irradiated (2 Gy) HUVEC, confocal microscopy quantified by NIH Image, FIG. 2
selectin = conditions: cited from earlier work; for block selectin binding to sLe^x: in vitro
P-selectin [2] = assay: P-selectin translocation (Weibel-Palade body exocytosis) in irradiated HUVEC with enzyme inhibitors, immunofluorescence; assay type: cell-based, human; conditions: inhibitor added prior to irradiation, 10 Gy
Excerpt: (§1) The initial step in discerning the potential role of various signal transduction pathways is to add enzyme inhibitors prior to x-radiation. Exocytosis of Weibel-Palade bodies is an active process requiring the translocation of cytoplasmic granules. Previous studies have shown that intracellular signal transduction required for Weibel Palade body translocation involves influx of calcium and protein kinase C activation (calcium, PKC). To determine whether these signaling pathways participate in radiation-mediated Weibel-Palade body exocytosis, the inventors added the intracellular calcium chelator BAPTA and the protein kinase C inhibitor, calphostin, to HUVEC cells prior to irradiation. Cells were then treated with 10 Gy and immunofluorescence was used to localize P-selectin. […] Conversely, the tyrosin kinase inhibitor, herbimycin A, had no effect on Weibel-Palade exocytosis. To determine whether calcium chelation and protein kinase inhibition prevent all molecular responses to ionizing radiation, the inventors' added BAPTA and calphostin prior to radiation-induction of ICAM-1 expression. BAPTA and calphostin had no effect on x-ray induction of ICAM-1. However, herbimycin A and the NFkB inhibitor ALLN attenuated x-ray induction of ICAM-1.

ICAM-1 [3] = assay: X-ray induction of ICAM-1 expression with enzyme inhibitors; assay type: cell-based, human; conditions: inhibitor added prior to irradiation
Excerpt: as §1

vWF = conditions: disruption of microtubules; cited from earlier work
E-selectin [4] = conditions: Hallahan et al., 1995, 1996; cited from earlier work
ICAM-1 [5] = conditions: Hallahan et al., 1995, 1996; cited from earlier work
E-selectin [6] = biological target: T1, E-selectin (Homo sapiens, UniProt P16581); conditions: Nelson et al. (1993); cited from earlier work
T1 sequence (P16581 22-610): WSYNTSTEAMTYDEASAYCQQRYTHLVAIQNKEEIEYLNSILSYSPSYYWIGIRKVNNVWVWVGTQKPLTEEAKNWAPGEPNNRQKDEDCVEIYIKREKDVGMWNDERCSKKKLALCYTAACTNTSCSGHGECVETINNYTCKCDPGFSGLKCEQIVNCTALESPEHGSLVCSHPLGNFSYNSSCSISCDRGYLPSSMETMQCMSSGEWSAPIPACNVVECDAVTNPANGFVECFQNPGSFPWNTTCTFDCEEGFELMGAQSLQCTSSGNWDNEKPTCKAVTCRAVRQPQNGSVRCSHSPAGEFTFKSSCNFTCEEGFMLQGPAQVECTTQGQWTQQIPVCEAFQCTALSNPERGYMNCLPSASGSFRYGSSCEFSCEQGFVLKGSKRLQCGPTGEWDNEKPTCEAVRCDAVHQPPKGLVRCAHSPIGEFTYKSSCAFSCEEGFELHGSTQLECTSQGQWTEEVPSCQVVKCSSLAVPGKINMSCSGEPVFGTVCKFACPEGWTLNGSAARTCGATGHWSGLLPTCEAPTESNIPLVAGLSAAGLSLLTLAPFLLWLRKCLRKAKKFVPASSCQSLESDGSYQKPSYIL

[7] = Narasinga Rao et al. (1994); cited from earlier work
HL60 cells = assay: HL60 leukocyte adhesion to irradiated HUVECs; assay type: cell-based, human; conditions: 1 mM each; added 4 h after 10 Gy and 30 min prior to HL60 cells
Method: Human leukemia cell line HL60 has been used to quantify leukocyte adhesion to endothelial cells (Jones et al., 1995). HL60 cells were added to human umbilical vein in endothelial cells (HUVECs) after exposure to 10 Gy or cells treated with otherwise identical conditions without irradiation. Cultures were washed and cells were counted using a hemocytometer. […] Each agent blocked the adherence of HL60 cells to irradiated HUVECs.

[8] = rats, orally; Akao et al. (1994); cited from earlier work

## C=C1[C@@H](C)[C@H]2[C@H](Cc3ccccc3)NC(=O)[C@]23OC(=O)/C=C/[C@H](O)CCC[C@@H](C)C/C=C/[C@H]3[C@@H]1O [cytochalasin-B]
P-selectin [1]
  x-ray induced translocation of P-selectin: no inhibition
  8-fold increase in P-selectin immunofluorescence on the cell surface: not

## O=C(O)[C@H]1O[C@H](O[C@@H]2[C@H](O)[C@@H](O)[C@@H](O[C@@H]3[C@H](O)[C@@H](O)C(O)O[C@@H]3C(=O)O)O[C@@H]2C(=O)O)[C@H](O)[C@@H](O)[C@H]1O (some centres unmarked) [trigalacturonic acid]
selectin; Narasinga Rao et al. (1994)
  block selectin binding to sLe^x: effective

## CC(C)C[C@H](NP(=O)(O)O[C@@H]1O[C@@H](C)[C@H](O)[C@@H](O)[C@H]1O)C(=O)N[C@@H](Cc1c[nH]c2ccccc12)C(=O)[O-].CC(C)C[C@H](NP(=O)(O)O[C@@H]1O[C@@H](C)[C@H](O)[C@@H](O)[C@H]1O)C(=O)N[C@@H](Cc1c[nH]c2ccccc12)C(=O)[O-].[Na+].[Na+] [N-(α-Rhamnopyranosyloxy hydroxyphosphonyl)- Leu-Trp]
selectin; Narasinga Rao et al. (1994)
  block selectin binding to sLe^x: effective

## C[C@H]1O[C@H](OC2[C@@H](O)[C@@H](O)C(O)[C@H](O)[C@H]2O)[C@@H](N)C[C@@H]1N=C(N)C(=O)O.Cl (some centres unmarked) [kasugamycin hydrochloride]
selectin; Narasinga Rao et al. (1994)
  block selectin binding to sLe^x: effective

## CO[C@H]1[C@@H](OC)C[C@H](C)[C@@H](OC)C2=CC(=O)C=C(NC(=O)/C(C)=C/C=C\[C@H](OC)[C@@H](OC(N)=O)/C(C)=C/[C@@H]1C)C2=O [herbimycin A]
P-selectin [2]
  P-selectin translocation to the cell membrane (Weibel-Palade exocytosis): no effect
ICAM-1 [3]
  x-ray induction of ICAM-1: attenuated

## CC1(C)[C@@H](O)CC[C@]2(C)[C@H]3C(=O)C=C4[C@@H]5C[C@@](C)(C(=O)O)CC[C@]5(C)CC[C@@]4(C)[C@]3(C)CC[C@@H]12 [18-β-glycyrrhetinic acid]
selectin; Narasinga-Rao et al. (1994), read-out: IC50 blocking selectin activity
  IC50: > 2000 µM

## COc1cc2c(c(OC)c1OC)-c1ccc(OC)c(=O)cc1[C@@H](NC(C)=O)CC2 [colchicine]
vWF
  vWF secretion from thrombin-treated endothelial cells: attenuates

## [ring-^14C]Chlorhexidine
selectin; Narasinga Rao et al. (1994)
  block selectin binding to sLe^x: effective

## CC1(C)[C@@H](O[C@H]2O[C@H](C(=O)O)[C@@H](O)[C@H](O)[C@H]2O[C@@H]2O[C@H](C(=O)O)[C@@H](O)[C@H](O)[C@H]2O)CC[C@]2(C)[C@H]3C(=O)C=C4[C@@H]5C[C@@](C)(C(=O)O)CC[C@]5(C)CC[C@@]4(C)[C@]3(C)CC[C@@H]12 [glycyrrhizic acid (NH^+4), glycyrrhizic acid]
selectin; Narasinga Rao et al. (1994)
  block selectin binding to sLe^x: blocked

## Cc1c2oc3c(C)ccc(C(=O)N[C@@H]4C(=O)N[C@H](C(C)C)C(=O)N5CCC[C@H]5C(=O)N(C)CC(=O)N(C)[C@@H](C(C)C)C(=O)O[C@@H]4C)c3nc-2c(C(=O)N[C@@H]2C(=O)N[C@H](C(C)C)C(=O)N3CCC[C@H]3C(=O)N(C)CC(=O)N(C)[C@@H](C(C)C)C(=O)O[C@@H]2C)c(N)c1=O [actinomycin D] (I: T[dV]P[Sar][NMeV] / II: T[dV]P[Sar][NMeV]; ester I:1-I:C, II:1-II:C; linker I:N-II:N via Actinocin(9to1))
E-selectin [4]
  radiation-mediated increase in E-selectin mRNA expression: blocked
ICAM-1 [5]
  radiation-mediated increase in ICAM-1 mRNA expression: blocked

## O=C(O)c1cc(O)c2c(c1)C(=O)c1cccc(O[C@@H]3O[C@H](CO)[C@@H](O)[C@H](O)[C@H]3O)c1C2=O [rhein-8-glucoside]
selectin; Narasinga Rao et al. (1994)
  block selectin binding to sLe^x: effective

## Cc1c(C(=O)O)c(O)cc2c1C(=O)c1c(O)c([C@H]3O[C@H](CO)[C@@H](O)[C@H](O)[C@H]3O)c(O)c(O)c1C2=O [carmine]
selectin; Narasinga Rao et al. (1994)
  block selectin binding to sLe^x: effective

## COC(=O)CCCCCCCCO[C@@H]1O[C@H](CO)[C@@H](O[C@@H]2O[C@@H](C)[C@@H](O)[C@@H](O)[C@@H]2O)[C@H](O[C@@H]2O[C@H](CO)[C@H](O)[C@H](O[C@]3(C(=O)O)C[C@H](O)[C@@H](NC(C)=O)[C@H]([C@H](O)[C@H](O)CO)O3)[C@H]2O)[C@H]1N [amino substituted sLe^a]
E-selectin [6]
  IC50: 21 ± 3 µM
  more active than the reducing tetrasaccharide sLe^x: 36 fold

## CC(=O)Nc1c(I)c(C(=O)O)c(I)c(N(C)C(C)=O)c1I [metrizoic acid (meglumine salt), metrizoic acid]
selectin; Narasinga Rao et al. (1994)
  block selectin binding to sLe^x: effective

## calphostin
P-selectin [2]
  P-selectin translocation to the cell membrane (Weibel-Palade exocytosis): attenuation; also recorded: attenuates
ICAM-1 [3]
  x-ray induction of ICAM-1: no effect

## C[C@@H]1O[C@@H](O[C@H]2[C@H](O[C@H]3CC[C@@]4(C)[C@@H](CC[C@]5(C)[C@@H]4CC=C4[C@@H]6CC(C)(C)CC[C@]6(C(=O)O)CC[C@]45C)[C@]3(C)CO)OC[C@H](O)[C@@H]2O)[C@H](O)[C@H](O)[C@H]1O [α-Hederin]
selectin; selectin binding to sLe^x, Narasinga Rao et al. (1994)
  inhibiting concentrations: 2 to 3 mM

## CC1OC(OC2CCC3(C)C(CCC4(C)C3C(=O)C=C3C5CC(C)(C(=O)O)CCC5(C)CCC34C)C2(C)C)C(O)C(O)C1O [L-fucose derivative]
[7]
  in vivo efficacy (anti-inflammatory activity): most active
selectin; sugars substituted for the glucuronic acids of glycyrrhizin, Narasinga Rao et al. (1994)
  selectin inhibition activity in vitro: most active

## Neu5Acα2-3Galβ1-4 [Fucα1-3]GlcNAc [sialyl Lewis X]
HL60 cells
  adherence of HL60 cells to irradiated HUVECs: blocked

## picrocarmine
selectin; Narasinga Rao et al. (1994)
  block selectin binding to sLe^x: effective

## C[C@H]1O[C@H](O[C@H]2[C@H](O)[C@@H](O)[C@@H](O)[C@H](O)[C@@H]2O)[C@@H](N)C[C@@H]1NC(=N)C(=O)O [kasugamycin]
selectin; Narasinga Rao et al. (1994)
  block selectin binding to sLe^x: effective

## CC(=O)Nc1c(I)c(NC(C)=O)c(I)c(C(=O)O)c1I.CNC[C@H](O)[C@@H](O)[C@H](O)[C@H](O)CO [meglumine diatrizoate]
selectin; Narasinga Rao et al. (1994)
  block selectin binding to sLe^x: effective

## escin
selectin; Narasinga Rao et al. (1994)
  block selectin binding to sLe^x: effective

## CC1(C)[C@@H](O[C@H]2O[C@H](C(=O)O)[C@@H](O)[C@H](O)[C@H]2O[C@@H]2O[C@H](C(=O)O)[C@@H](O)[C@H](O)[C@H]2O)CC[C@]2(C)[C@H]3C(=O)C=C4[C@@H]5C[C@@](C)(C(=O)O)CC[C@]5(C)CC[C@@]4(C)[C@]3(C)CC[C@@H]12 [Glycyrrhizin]
[8]
  absorption from the gut: poorly absorbed
selectin; Narasinga Rao et al. (1994)
  block selectin binding to sLe^x: block
selectin; Narasinga Rao et al. (1994), listed as glycyrrhizin
  block selectin binding to sLe^x: blocked
HL60 cells
  adherence of HL60 cells to irradiated HUVECs: blocked

## carmine ammonia
selectin; Narasinga Rao et al. (1994)
  block selectin binding to sLe^x: effective

## Cc1c(C(=O)O)c(O)cc2c1C(=O)c1c(O)c([C@@H]3O[C@H](CO)[C@@H](O)[C@H](O)[C@H]3O)c(O)c(O)c1C2=O [carminic acid]
selectin; Narasinga Rao et al. (1994)
  block selectin binding to sLe^x: blocked selectin binding at concentrations comparable to those of glycyrrhizin
HL60 cells
  adherence of HL60 cells to irradiated HUVECs: blocked

## COC(=O)Nc1nc2cc(C(=O)c3cccs3)ccc2[nH]1 [nocodozol]
P-selectin [1]
  x-ray induced translocation of P-selectin: inhibited
  8-fold increase in P-selectin immunofluorescence on the cell surface: abrogated

## CCCC[C@@H](C=O)NC(=O)[C@H](CC(C)C)NC(=O)[C@H](CC(C)C)NC(C)=O [ALLN] (Ac-Leu-Leu-[Nle]-aldehyde)
ICAM-1 [3]
  x-ray induction of ICAM-1: attenuated
